# pIC50: −log10 of the molar value.
# Key:
# Panc-28 cells = assay: Cell proliferation assay, Panc-28 cells; assay type: cell-based; details: Homo sapiens, read-out: IC50 values, inhibition of growth
# Protocol: SW480, HT-29 and HCT-15 human colon cancer cells were provided by Dr. Stan Hamilton (M. D. Anderson Cancer Center (Houston, Tex.). Panc-28 human pancreatic cancer cells and 3T3-L1 pre-adipocytes were obtained from American Type Culture Collection (Manassas, Va.). SW480, HT-29 and Panc-28 cells were maintained in Dulbecco's modified/Ham's F-12 (Sigma-Aldrich, St Louis, Mo.) with phenol red supplemented with 0.22% sodium bicarbonate, 0.011% sodium pyruvate, 5% fetal bovine serum, and 10 mL/L 100× antibiotic antimycotic solution (Sigma). HCT-15 cells were maintained in RPMI 1640 (Sigma) supplemented with 0.22% sodium bicarbonate, 0.011% sodium pyruvate, 0.45% glucose, 0.24% HEPES, 10% fetal bovine serum, and 10 mL/L of 100× antibiotic antimycotic solution (Sigma). Cells were maintained at 37° C. in the presence of 5% CO2.
# This assay is performed in 12-well tissue culture plates at the concentration of 2×10^4 cells per well, using DMEM/Ham's F-12 media containing 2.5% charcoal stripped FBS. The cells were counted on the initial day using a Z1 cell counter (Beckman Coulter, Fullerton, Calif.) and then were treated either with vehicle (DMSO) or the indicated triterpenoid compounds, each sample in triplicate. Every 48 hr, fresh medium was added along with the indicated compounds. […] The results are expressed as means±S.E for each set of triplicate.
# [1] = test system: LNCaP prostate cancer cells; assay: Cell proliferation (cell counting), LNCaP prostate cancer cells; assay type: cell-based; details: Homo sapiens, 144 h, 6 days, read-out: 6-day IC50 values for growth inhibition
# Protocol: Human carcinoma cell lines LNCaP (prostate) and SK-MEL2 (melanoma) were obtained from American Type Culture Collection (Manassas, Va.). Cell lines were maintained in RPMI 1640 (Sigma) supplemented with 0.22% sodium bicarbonate, 0.011% sodium pyruvate, 0.45% glucose, 0.24% HEPES, 10% FBS, and 10 mL/L of 100× Antibiotic Antimycotic solution (Sigma). Cells were maintained at 37° C. in the presence of 5% CO2.
# Prostate and melanoma cancer cells (2×10^4 per well) were plated in 12-well plates and allowed to attach for 24 hr. The medium was then changed to DMEM:Ham's F-12 medium containing 2.5% charcoal-stripped FBS and either vehicle (DMSO) or different concentrations of the compound were added. […] Each experiment was done in triplicate and results are expressed as means±SE for each set of experiments.
# Panc28 cells = assay: Apoptosis (PARP cleavage, Western blot) in Panc28 cells; assay type: cell-based, human; details: Panc28, 24 hr
# Protocol: (§1) Induction of KLF4 in HT-29 (FIG. 12A) and SW480 (FIG. 12B) cells. Cells were treated with different concentrations of CDODA isomers or T007 alone or in combination, and KLF4 mRNA levels were determined by real time PCR. […] KLF4 mRNA levels were not induced in SW480 cells by BA derivatives. FIGS. 12C-12D show induction of apoptosis. Panc28 (FIG. 12C) and SW480 (FIG. 12D) cells were treated for 24 hr with betulinic acid and related compounds and whole cell lysates were examined by Western blot analysis.
# (§2) SW480, HT-29, HCT-15 and Panc-28 (3×10^5) colon cancer cells were seeded in 6-well tissue culture plates in DMEM/Ham's F-12 medium containing 2.5% charcoal-stripped FBS. Protein is extracted from the cells treated either with vehicle or indicated compounds suspended for 24 hr except for caveolin-1 protein which was done for 72 hr. Samples were extracted in high salt buffer [50 mmol/L HEPES, 500 mmol/L NaCl, 1.5 mmol/L MgCl2, 1 mmol/L EGTA, 10% glycerol, and 1% Triton X-100 (pH 7.5), and 5 μL/mL protease inhibitor cocktail (Sigma-Aldrich)]. Samples were incubated at 100° C. for 2 min, separated on either 10% or 12% SDS-PAGE gels and then transferred to polyvinylidene difluoride membrane (PVDF; Bio-Rad, Hercules, Calif.). […]
# [2] = test system: Miapaca-2 pancreatic cancer cells; assay: Western blot of Sp proteins in Miapaca-2 cells; assay type: cell-based; details: Miapaca-2, 24 hr
# Protocol: RKO colon cancer cells were treated with BA/CN-BA for 24 hr (FIG. 15A) or 48 hr (FIG. 15B) and Miapaca-2 pancreatic cancer cells were treated with BA/CN-BA for 24 hr (FIG. 15C). Whole cell lysates were examined by Western blot analysis.
# SW480 cells = assay: Apoptosis (PARP cleavage, Western blot) in SW480 cells; assay type: cell-based, human; details: SW480, 24 hr
# Protocol: as §1, §2
pIC50 (Panc-28 cells),pIC50 [1],SMILES,caspase-dependent PARP cleavage (Panc28 cells),Sp protein expression [2],caspase-dependent PARP cleavage (SW480 cells)
5.30 to 6.00,5.30 to 6.00,"C=C(C)[C@@H]1CC[C@]2(C(=O)O)CC[C@]3(C)[C@H](CC[C@@H]4[C@@]5(C)CC[C@H](O)C(C)(C)[C@@H]5CC[C@]43C)[C@@H]12 [betulinic acid, Betulinic acid]",,,
,,CC(C)C1CCC2(C(=O)O)CCC3(C)C(CCC4C5(C)C=C(C#N)C(=O)C(C)(C)C5CCC43C)C12 (centres unmarked) [CN-BA],induced caspase-dependent PARP cleavage,decrease Sp protein expression,induced caspase-dependent PARP cleavage

# Reference: patent publication US20090203661A1, “Betulinic acid, derivatives and analogs thereof and uses therefor” (priority 2006, published 2009)
